{
  "source": "paper PMC5472784",
  "about": "“Pyrazinamide and derivatives block ethylene biosynthesis by inhibiting ACC oxidase” (Nature Communications, 2017)",
  "key": {"[1]": {"system": "Arabidopsis etiolated seedlings (Col-0, eto1-2, ctr1-1, ein2-5)", "assay": "Ethylene response phenotype of 3-day-old etiolated seedlings (hypocotyl and root length, root hairs, root cells)", "format": "in vivo, Arabidopsis thaliana"}, "[2]": {"system": "Arabidopsis PSB-D suspension cultured cells", "assay": "Wayne Test, conversion of PZA to POA in suspension cultured cells", "format": "cell-based, Arabidopsis thaliana", "details": "500 μM PZA, 24 h, abolished in boiled cells", "protocol": "500 μM PZA were added to 50 ml Arabidopsis suspension cell log phase cultures or boiled cultures and incubated at 27 °C for 24 h. 1 ml cell culture was collected after centrifugation, and 10 μl 2% ferrous sulfate was added to the supernatant for colour development. The absorbance at 450 nm of each samples was measured by spectrophotometer and the POA concentration was calculated according to the POA-Abs450 standard curve drawn using the reference solutions of POA.\nArabidopsis suspension cells were cultured in liquid MS medium in the presence or absence of 500 μM PZA for 24 h. The culture supernatant was collected by centrifugation and alkalized (pH>11) using sodium hydroxide (NaOH), followed by extracting with ethyl acetate twice to eliminate lipid-soluble molecules. The aqueous phase was collected and acidified (pH<2) using hydrochloric acid (HCl). The protonated cultures were extracted with ethyl acetate five times to enrich POA. The resulting samples were concentrated by reduced pressure distillation and analysed using a Fourier Transform Ion Cyclotron Resonance Mass Spectrometer (Solarix XR, Bruker)."}, "[3]": {"target": "T1, AtNIC2 (Arabidopsis thaliana, UniProt Q9FMX7)", "T1 sequence (Q9FMX7 1-198)": "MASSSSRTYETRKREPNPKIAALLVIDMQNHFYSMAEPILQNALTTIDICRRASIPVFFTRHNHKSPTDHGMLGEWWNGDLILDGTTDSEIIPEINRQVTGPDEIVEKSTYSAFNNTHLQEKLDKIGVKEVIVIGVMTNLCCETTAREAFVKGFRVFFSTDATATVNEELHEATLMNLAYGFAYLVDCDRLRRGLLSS", "assay": "In vitro PZase assay (TLC, NMR)", "format": "biochemical", "details": "5 mM PZA, 12 h, 30 °C", "source_text": "(§1) Silica TLC plates were developed in dichloromethane/methanol (3:1), and analysed with ultraviolet.\nFor NMR analysis, the AtNIC2-catalysed PZase reaction was acidified using HCl and extracted using ethyl acetate. The solvent was removed by reduced pressure distillation. The sample was then re-dissolved in dimethyl sulfoxide-d6 and analysed using Bruker-400 MHz NMR (ARX400, Bruker)."}, "[4]": {"system": "ethylene production of Arabidopsis seedlings", "assay": "Measurement of ethylene production of seedlings (GC-FID)", "format": "in vivo, Arabidopsis thaliana", "details": "etiolated and green seedlings, 50 μM", "protocol": "Ethylene production was determined as follows: 30 3-day-old etiolated or 5-day-old green seedlings of Col-0, eto1-2 or other mutants were selected randomly and sealed in a 30 ml vial containing 3 ml liquid MS medium supplemented with indicated treatments. The vial was sealed with a rubber stopper for 24 h at 22 °C prior to ethylene sampling. A 250 μl sample of the headspace gas was withdrawn using a gas-tight syringe from each chamber through the septum stopper, and injected into a gas chromatograph (Agilent 6890NGC, Agilent Technologies, USA) that was equipped with a HP-PLOTQ column (40 m × 530 μm × 40 μm) and a flame ionization detector (FID)[44]. Separations were carried out at 60 °C using N2 as the carrier gas. The area of the ethylene peak was integrated with Agilent Chemstation and results were expressed as the average relative ethylene production (%) of each treatment."}, "[5]": {"system": "Arabidopsis PSB-D suspension cultured cells", "assay": "Ethylene production of suspension cultured cells", "format": "cell-based, Arabidopsis thaliana"}, "[6]": {"system": "EIN3", "assay": "EIN3 protein level (Western blot) and pEBS:GUS staining", "format": "in vivo, Arabidopsis thaliana", "details": "1 μM ACC, 50, 100 and 200 μM PZA"}, "[7]": {"system": "ACC conjugating enzymes (ACC and M-ACC content of eto1-2 seedlings)", "assay": "Quantification of ACC and M-ACC", "format": "in vivo, Arabidopsis thaliana", "details": "10-day-old green seedlings, 50 μM PZA", "protocol": "10-day-old green seedlings of eto1-2 under different treatments were ground in liquid nitrogen, and extracted with 5% SSA (sulfosalicylic acid). For ACC measurement, the extract was oxidized with 2 mM HgCl2, 0.33% NaOCl and 0.2 M NaOH, reacted on ice for 4 min, and then the ethylene production was determined with GC-FID. For M-ACC measurement, the extract was hydrolyzed using 2 M HCl followed by oxidization and ethylene production determination, and the content of ACC and M-ACC were calculated based on the ethylene production and efficiency of oxidization."}, "[8]": {"system": "auxin response", "assay": "Auxin response, pDR5::GFP reporter lines", "format": "in vivo, Arabidopsis thaliana", "details": "pDR5::GFP/Col-0 and pDR5::GFP/ein2-5", "protocol": "(§2) GFP fluorescence and propidium iodide staining signals in roots were detected using Zeiss LSM-710 microscope. All seedlings were grown in the dark for 3 days on MS medium supplemented with the indicated treatments, and then mounted on glass slides and observed in water. For propidium iodide staining, roots were visualized in the presence of propidium iodide without fixation. ImageJ was used to process images and to quantify the fluorescent intensity of GFP."}, "[9]": {"system": "anthocyanin accumulation", "assay": "Anthocyanin measurement", "format": "in vivo, Arabidopsis thaliana", "details": "6-day-old Col-0 green seedlings", "source_text": "6-day-old green seedlings grown on MS medium supplemented with different concentration of PZA were sampled for anthocyanin measurement by spectrophotometry. The content of anthocyanin is presented as (A535−A650)/g."}, "[10]": {"target": "AtACO2 (Arabidopsis thaliana, UniProt Q41931)", "sequence (Q41931 1-303)": "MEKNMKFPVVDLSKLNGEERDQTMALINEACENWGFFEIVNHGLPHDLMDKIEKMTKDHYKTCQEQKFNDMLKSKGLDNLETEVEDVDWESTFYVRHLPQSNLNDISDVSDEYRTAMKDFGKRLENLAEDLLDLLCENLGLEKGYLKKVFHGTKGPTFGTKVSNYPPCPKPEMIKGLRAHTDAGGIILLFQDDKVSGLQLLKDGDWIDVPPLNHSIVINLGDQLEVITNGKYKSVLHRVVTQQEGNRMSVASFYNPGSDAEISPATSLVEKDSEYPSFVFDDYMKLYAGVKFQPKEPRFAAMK", "assay": "ACO enzymatic activity assay and kinetic analysis (ethylene by GC-FID)", "format": "biochemical", "details": "even at a high concentration (2 mM)"}, "[11]": {"target": "T2, AtNIC3 (Arabidopsis thaliana, UniProt Q9FMX8)", "T2 sequence (Q9FMX8 1-198)": "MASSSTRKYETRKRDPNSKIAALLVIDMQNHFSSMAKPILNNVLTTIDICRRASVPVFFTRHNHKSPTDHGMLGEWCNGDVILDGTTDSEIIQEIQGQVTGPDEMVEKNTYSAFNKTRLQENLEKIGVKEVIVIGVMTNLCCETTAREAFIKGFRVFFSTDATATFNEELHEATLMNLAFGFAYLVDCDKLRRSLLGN", "assay": "In vitro PZase assay (TLC)", "format": "biochemical", "details": "5 mM PZA, 12 h, 30 °C", "source_text": "as §1"}, "[12]": {"system": "GA response", "assay": "GA response, pRGA::GFP-RGA reporter seedlings", "format": "in vivo, Arabidopsis thaliana", "details": "pRGA::GFP-RGA seedlings, 20, 50, 100 μM PZA", "protocol": "as §2"}},
  "data": [
    {"smiles": "NC(=O)c1cnccn1", "note": "[PZA, pyrazinamide]", "values": [
      {"measurement": "cell elongation in the root maturation zone of eto1-2", "setting": "[1]; 50 μM", "value": "promoted cell elongation"},
      {"measurement": "root hair formation of eto1-2", "setting": "[1]; 50 μM", "value": "effectively suppressed"},
      {"measurement": "size of the cell division zone of eto1-2 root", "setting": "[1]; 50 μM", "value": "little effect"},
      {"measurement": "short-root and short-hypocotyl phenotype of eto1-2", "setting": "[1]; 3-day-old etiolated eto1-2 seedlings, MS medium with compound (50 μM shown)", "value": "partially suppressed"},
      {"measurement": "phenotype of ethylene signalling mutants ctr1-1 and ein2-5", "setting": "[1]; 3-day-old etiolated seedlings", "value": "little effect"},
      {"measurement": "ACC-induced short hypocotyl and root phenotype", "setting": "[1]; Col-0, 1 μM ACC, 50 or 100 μM PZA", "value": "significantly suppressed"},
      {"measurement": "ethylene-induced phenotype", "setting": "[1]; Col-0, 2 p.p.m. ethylene, 50 or 100 μM PZA", "value": "no effect"},
      {"measurement": "lengths of hypocotyls and roots of wild-type (Col-0)", "setting": "[1]; etiolated seedlings, increasing doses (1-100 μM)", "value": "slightly promoted"},
      {"measurement": "conversion into POA in PSB-D culture", "setting": "[2]", "value": "converted into POA"},
      {"measurement": "conversion of PZA into POA by AtNIC2", "setting": "[3]", "value": "able to convert PZA into POA"},
      {"measurement": "ethylene production of eto1-2", "setting": "[4]", "value": "effectively inhibited"},
      {"measurement": "ethylene production in suspension cultured cells", "setting": "[5]", "value": "inhibited"},
      {"measurement": "ACC-induced EIN3 protein accumulation and transcriptional activation of target promoter", "setting": "[6]", "value": "inhibited"},
      {"measurement": "ACC level in eto1-2", "setting": "[7]", "value": "slight increase"},
      {"measurement": "M-ACC level in eto1-2", "setting": "[7]", "value": "almost no change"},
      {"measurement": "effect on auxin response", "setting": "[8]", "value": "EIN2-dependent manner"},
      {"measurement": "effect on anthocyanin accumulation", "setting": "[9]", "value": "virtually no effect"},
      {"measurement": "inhibition of the activity of AtACO2", "setting": "[10]", "value": "no inhibition"},
      {"measurement": "conversion of PZA into POA by AtNIC3", "setting": "[11]", "value": "able to convert PZA into POA"},
      {"measurement": "effect on GA response", "setting": "[12]", "value": "virtually no effect"}
    ]}
  ]
}
